“And” between values parts separate entries of the source, which are not always exact repeats. Identical values can stand only once. “Also recorded” adds a separate entry of the source. Like-named read-outs stand apart in the source and are kept apart here. Marks after values point to notes of the source that are not given here.
How the values were obtained:
intimal hyperplasia = conditions: for as long as 6 months after PDT; cited from earlier work
[1] = tested on: basic fibroblast growth factor (bFGF); assay: Immunohistochemistry for bFGF in arteries after BPD-PDT; assay type: in vivo, rat; conditions: 100 J/cm^2
Text: Harvest. […] The carotid artery was flushed with saline.
Immunohistochemistry. Immunohistochemistry for basic fibroblast growth factor (bFGF) was undertaken to verify possible differential, dose-dependent effects on this growth factor which resides in the vascular wall and is known to play an important role in the early development of IH in rats. Monoclonal antibody to bFGF (Zymogenetics, Seattle, Wash.) was used to verify the presence of bFGF in the specimens using the two-layer indirect immunoperoxidase technique previously described. Briefly, the primary antibody (1:1000) was labeled by biotinylated horse anti-mouse immunoglobulin (Vector Laboratories, Burlingame, Calif.) and counterstained with nuclear fast red (Sigma Chemical Co., St. Louis, Mo.). Normal arteries were used as positive control, and arteries stained with a nonspecific primary antibody were used as negative controls to exclude nonspecific binding by the primary or secondary antibody.

[2] = tested on: balloon-injured rat common carotid artery (intimal hyperplasia); conditions: for Intimal Area: 690 nm
Description: Male Sprague Dawley rats (Charles River Breeding Laboratories, Wilmington, Mass.), weighing 350-450 g, were anesthetized with intramuscular Ketamine (75 mg/kg), Xylazine (5 mg/kg), and Atropine (40 μg/kg). A midline neck incision was performed and the left carotid artery was exposed. After clamping the common carotid and the internal carotid artery, a 2 F (French Fogarty embolectomy catheter (Baxter Health Care Corporation, LIS Division, Irvine, Calif.) was introduced into the common carotid artery via the external carotid artery. The common carotid artery was subsequently injured by inflating the balloon with 0.2 ml air and gently passing and rotating the catheter three times.
After balloon-injury, a 22 gauge polyethylene catheter was advanced through the external carotid arteriotomy into the distal portion of the common carotid artery and secured with a suture. The catheter was connected via three-way stopcock to a Statham transducer for synchronous pressure monitoring with a digital pressure manometer (HP 78205C, Hewlett Packard, Palo Alto, Calif.). The second generation photosensitizer benzoporphyrin-derivative monoacidic ring (BPD-MA Verteporfine®, Quadra Logic Technologies Inc., Vancouver, BC, Canada), provided as a liposomal preparation, was reconstituted in distilled water (2 mg/ml) and diluted in physiologic saline to a final concentration of 25 μg/ml. Once the arterial segment was isolated with microclamps under low ambient light, BPD was delivered at a pressure of 400 mm Hg for two minutes. […] Following aspiration of BPD from the arterial lumen, the artery was flushed with saline, the catheter was removed, and blood flow was restored to the internal carotid artery.
Photodynamic Therapy. Fifteen minutes following delivery of the PS to the artery wall, the common carotid artery was externally irradiated as previously described. Briefly, an argon-pumped dye laser (Coherent Innova I 100 and Coherent CR 599, Coherent, Palo Alto, Calif.) was tuned to 690 nm light at an irradiance of 100 mW/cm^2, coupled to a 600 μm optical fiber, and using a 5-mm focal length lens magnified to obtain a uniform 2-cm spot. The targeted artery was submerged in physiologic saline, placed on a right-angled reflective mirror, and optically isolated with black, light-impervious tape.
Experimental groups. The arteries were assigned to four different experimental groups: group 1 (n=6) and 2 (n=6) consisted of arteries which were pressurized with 0.5 μg/ml BPD and irradiated at a fluence of 50 and 100 J/cm^2 respectively. Group 3 (n=15) and 4 (n=4) were pressurized with 25 μg/ml BPD and irradiated at 100 or 200 J/cm^2 respectively.
Harvest. The animals were sacrificed 24 hours and 2 weeks after PDT. The carotid artery was flushed with saline. They were either in situ perfusion-fixed at 80 mm Hg with 10% buffered formalin for light microscopy or rinsed with saline, embedded in Tissue tek O.C.T. compound® (Miles Inc. Elkhart, IN) and stored at −70° C. for immunohistochemistry.
Histology. For each animal, the harvested artery was processed into three segments: proximal, mid, and distal. Multiple five-μm thick cross-sections were prepared from each specimen of the artery, and a representative from each segment was analyzed. All paraffin-embedded specimens were stained with hematoxylin and eosin. Arterial diameters, as delineated by the length of the internal elastic lamina (IEL circumference=πd), as well as intimal—and medial areas were measured using morphometric analysis with a camera lucida digitizing measurement system as previously described (Sigma Scan, Jandel Scientific, San Rafael, Calif.).

[3] = Observation of BPD-treated animals at harvest; assay type: in vivo, rat; conditions: rats after local delivery of BPD
[4] = 15 minutes following delivery of BPD at 400 mm Hg for two minutes; previous studies; cited from earlier work
[5] = tested on: balloon-injured rat common carotid artery (intimal hyperplasia); assay: PDT with locally delivered methylene blue in balloon-injured rat carotid artery: light microscopy and histomorphometry; assay type: in vivo; conditions: 2 weeks
Description: Control animals included BI along and MB after BI alone. Arteries were analyzed after 2 weeks with morphometric evaluation (per group: n=6), and in situ hybridization for versican and pro-collagen type 1 gene expression (digitized image pixel analyses, n=9).
Common carotid artery balloon injury was performed using a 2-French Fogarty embolectomy catheter (Baxter Health Care Corporation, Edwards Division, Irvine, Calif.). […] In brief, the balloon was introduced into the common carotid artery and inflated with 0.65 mL of air. […] The catheter was connected via a three-way stopcock to a Stratham transducer for synchronous pressure monitoring (HP 78205C, Hewlett Packard, Mass.). […] Under low ambient light, the drug was injected into the common carotid artery with 180 mm HG for 2 minutes. […] The external carotid artery was ligated, and the blood flow was restored.
The animals were randomly assigned to the following 3 groups: Group PDT (n=6): balloon injury followed by application of photosensitizer and laser irradiation; Group PS (n=6): balloon injury followed by the photosensitizer MB application alone; Group BI (n=6): no treatment other than balloon-injury (BI) to the carotid artery.
Photodynamic Therapy: Five minutes after local delivery of MB, the common carotid artery was externally irradiated with 660 nm laser light, emitted by a diode laser (Alto-Surgeon SRG-3, Polaroid, Cambridge, Mass.) to deliver a total fluence of 100 J/cm^2 at an irradiance of 100 mW/cm^2. The diode laser was coupled to a 600-μm optical fiber through a microlens to obtain a uniform 1-cm spot. The targeted artery was submerged in 0.9% saline and placed on a right-angled reflective mirror to achieve uniform irradiation, as previously described. The irradiated vessel segment was marked with periadventitial India ink.
Harvest: Animals were sacrificed 14 days after surgery by an overdose of pentobarbital. Following sacrifice, the iliac artery was cannulated and the arterial system was flushed with saline and in situ perfusion-fixed at 150 mm Hg with 10% buffered formalin. The balloon-injured vessel segments and the contralateral carotid artery were excised and placed in fresh 10% buffered formalin. After embedding in paraffin, multiple 4 μm thick cross sections were obtained from the proximal, mid, and distal vessel segments.
Vessel Histomorphometry: The histologic analyses of the arteries stained with hematoxylin and eosin consisted of both a descriptive and quantitative morphometric evaluation. The morphometry of the arteries was measured using a digitizing measurement system (Color CCB Camera Model 2222-1010, COHU Inc., San Diego, Calif.) and analyzed using the Scion Image software (Scion Corporation, Frederick, MY). Intimal area, medial area, and vessel diameter, as delineated by the external elastic lamina, were measured and calculated as previously described. In addition, adventitial cells were counted manually and are expressed as the number of cells per high power microscopic field (×400). Because the area of the adventitia varies within the different specimens, high power fields were used for all quantitative measurements of adventitial cell numbers and gene expression in the in situ hybridization experiments.

procollagen type I mRNA = assay: Digoxigenin in situ hybridization, procollagen type I; assay type: in vivo, rat; conditions: group PDT: MB 250 μg/ml, 660 nm, 100 J/cm^2; 2 weeks
Text: (§1) Digoxigenin in situ hybridization: Groups for in situ hybridization included PDT, BI, and the uninjured contralateral artery (n=3). […] Complementary DNAs (cDNAs) for type I procollagen and versican core protein were obtained as PCR fragments with each gene specific primers in which reverse primers contain T7 RNA polymerase recognition sequence at their 5′ end. Primer sequences were as follows. […] Digoxigenin-labeled antisense RNA probes were synthesized using a RNA labeling kit (Boehringer, Mannheim, Germany) according to the manufacturers' instruction and the in situ hybridization protocol used with modifications as previously described. Arterial sections were deparafinized in xylene and rehydrated through graded ethanol solutions, washed, and treated with 5 μg/ml proteinase K (Boehringer) for 30 min at 37° C. […] The hybridized probes were detected using an alkaline phosphatase conjugated anti-digoxigenin monoclonal antibody (Boehringer), and the colored product was visualized using Nitro Blue tetrazolium (Boehringer) and 5-bromo-4-chlor-indonyl-phosphate (Boehringer) as substrates. […] For statistical analysis, the median data point of every specimen was assessed and used to compare control versus PDT procollagen type I and veriscan gene expression.
(§2) Statistical Evaluation: All values are expressed as a mean ± SD.

versican mRNA = assay: Digoxigenin in situ hybridization, versican; assay type: in vivo, rat; conditions: group PDT: MB 250 μg/ml, 660 nm, 100 J/cm^2; 2 weeks
Text: as §1, §2

[6] = group 1: 0.5 μg/ml BPD, 50 J/cm^2, 2 weeks
[7] = group 2: 0.5 μg/ml BPD, 100 J/cm^2, 2 weeks
[8] = group 3: 25 μg/ml BPD, 100 J/cm^2, 2 weeks
[9] = group 4: 25 μg/ml BPD, 200 J/cm^2
[10] = group PDT: MB 250 μg/ml, 660 nm, 100 J/cm^2
[11] = group PS: MB alone without irradiation

chloraluminum sulfonated phthalocyanin
Inhibition of IH after PDT (intimal hyperplasia): inhibition of IH without arterial degeneration

benzoporphyrin-derivative monoacid ring [BPD]
bFGF staining of the vascular wall ([1]; group 2 / stage II: 0.5 μg/ml BPD, 24 hours after PDT): evidence of bFGF in all layers of the vascular wall; also recorded: bFGF could still be detected in all layers of the vascular wall; also recorded: positive staining for bFGF in all layers of the vascular wall; also recorded: avid brown staining in all layers of the vascular wall | bFGF staining of the vascular wall ([1]; group 3 / stage III: 25 μg/ml BPD, two weeks after PDT): evidence for bFGF in the flat cells, presumably endothelial cells, at the luminal surface; also recorded: positive bFGF staining only of endothelial cells in the intima and fibroblasts in the adventitia | Intimal hyperplasia, histology ([2]; group 1 / stage I: 0.5 μg/ml BPD, 50 J/cm^2, 2 weeks): significant IH | Diameter [2, 6]: 0.93 ± 0.02 mm | Medial Area [2, 6]: 0.18 ± 0.01 mm^2 | Intimal Area [2, 6]: 0.18±0.03 mm^2 | Diameter [2, 7]: 0.95 ± 0.06 mm | Medial Area [2, 7]: 0.18 ± 0.05 mm^2 | Intimal Area [2, 7]: 0.14±0.03 mm^2 | Diameter [2, 8]: 0.82 ± 0.04 mm | Medial Area [2, 8]: 0.10 ± 0.02† mm^2 | Intimal Area [2, 8]: 0.01 ± 0.01*‡ mm^2 | Diameter [2, 9]: 0.91 ± 0.03 mm | Medial Area [2, 9]: 0.17 ± 0.01 mm^2 | Signs of systemic phototoxicity [3]: no signs of systemic phototoxicity | Photosensitizer fluorescence in the arterial wall [4]: detected through the entire arterial wall

CN(C)c1ccc2nc3ccc(=[N+](C)C)cc-3sc2c1 [MB, methylene blue]
Artery thrombosis (MB study, at harvest (14 days)): No artery thrombosis | Signs of toxicity (rat, in vivo): no signs of toxicity | Diameter [5, 10]: 0.95±0.04 mm | Histology of arteries [5, 10]: without evidence of microthrombi, inflammation, or intimal thickening; also recorded: no IH was seen | Medial Area [5, 10]: 0.063±0.004 mm^2 | Number of adventitial cells per high power field ([5]; group PDT: MB 250 μg/ml, 660 nm, 100 J/cm^2, ×400): 39±9.4 | IH area ([5]; group PDT: balloon injury, MB 250 μg/ml locally, 660 nm, 100 J/cm^2): 0±0 mm^2 | Histology of arteries [5, 11]: no MB-induced modulation of the vascular injury healing response; also recorded: IH formation was demonstrated | Medial Area [5, 11]: 0.085±0.005 mm^2 | IH area ([5]; group PS: balloon injury, MB alone without irradiation): 0.183±0.05 mm^2 | Pro-collagen type I mRNA in adventitia, % of positive pixels per high power field (procollagen type I mRNA): 4.13%±1.25% | Versican mRNA in adventitia, % of positive pixels per high power field (versican mRNA): 1.13%±0.39% and 1.11±0.37%

Source: US6520981B1, “Significance of dosimetry in photodynamic therapy of injured arteries” (The General Hospital Corporation, priority 1999, dated 2003)
